Tests used:
[1] = molecular target: T1, CDK4/cyclin D3 (Homo sapiens, UniProt P11802); assay: Human CDK4/cyclin D3 inhibitory activity (QS S Assist CDK4/Cyclin D3_FP Kit, IMAP fluorescent polarization); format: biochemical; conditions: read-out: CDK4 Activity symbol
T1 construct: purchased Carna Biosciences, Inc. QS S Assist CDK4/Cyclin D3_FP Kit
Experimental: Human CDK4/Cyclin D3 Inhibitory Activity
(§1) Each compound was analyzed for CDK4/cyclin D3 inhibitory activity with an assay kit (QS S Assist CDK4/Cyclin D3_FP Kit, available from Carna Biosciences, Inc.). This assay kit determines kinase activity on the basis of the IMAP technology by Molecular Devices. Specifically, the kinase activity is determined through quantification of a variation in fluorescent polarization caused by binding of a kinase-phosphorylated fluorescent substance to an IMAP-binding reagent.
Each solution was prepared with the 10× assay buffer attached to the kit or a separately prepared assay buffer having the same composition as the assay buffer attached to the kit. An assay buffer was prepared by 10-fold dilution of the 10× assay buffer with distilled water. The assay buffer contains 20 mM HEPES (pH 7.4), 0.01% Tween20, and 2 mM dithiothreitol. A test compound solution was prepared by dilution of the test compound with dimethyl sulfoxide (DMSO) to a concentration 100 times higher than the final concentration and then 25-fold dilution with the assay buffer to a concentration four times higher than the final concentration. An ATP/substrate/Metal solution was prepared by five-fold dilution of the 5×ATP/substrate/Metal solution attached to the kit with the assay buffer. An enzyme solution was prepared by dilution of the CDK4/cyclin D3 attached to the kit with the assay buffer to a concentration twice higher than the final concentration (final concentration of CDK4/cyclin D3: 12.5 to 25 ng/well). A detection reagent was prepared by five-fold dilution of each of 5×IMAP-binding buffer A and 5×IMAP-binding buffer B with distilled water, mixing of IMAP-binding buffer A with IMAP-binding buffer B at a ratio of 85:15, and 400-fold dilution of the IMAP-binding reagent with the mixed buffer.
(§2) The test compound solution (5 μL/well) and the ATP/substrate/Metal solution (5 μL/well) were added to a 384-well plate, and the enzyme solution or the assay buffer (10 μL/well) was added to the plate (total amount of the reaction mixture: 20 μL/well) for initiation of enzymatic reaction. […] The reaction was performed at room temperature for 45 minutes, and the detection reagent (60 μL/well) was then added to the plate, followed by further reaction for 30 minutes at room temperature under light shielding conditions. Subsequently, fluorescent polarization was determined with a microplate reader at an excitation wavelength of 485 nm and an emission wavelength of 535 nm.
(§3) The percent inhibition of enzyme activity was calculated for each test compound (note: enzyme activity=100% in the case of addition of the enzyme solution and addition of DMSO instead of the test compound solution, whereas enzyme activity […] in the case of addition of the assay buffer instead of the enzyme solution, and addition of DMSO instead of the test compound solution). The percent inhibition of enzyme activity was fitted to a dose-response curve, to determine a 50% inhibitory concentration against CDK4/cyclin D3.
In each table, “+++” corresponds to IC50<10 nM. “++” 10 nM […] IC50<100 nM, and “+” 100 nM≤IC50.

[2] = molecular target: T2, CDK2/cyclin A2 (Homo sapiens, UniProt P24941); assay: Human CDK2/cyclin A2 inhibitory activity (QS S Assist CDK2/Cyclin A2_FP Kit, IMAP fluorescent polarization); format: biochemical; conditions: read-out: CDK2 Activity symbol
T2 construct: purchased Carna Biosciences, Inc. QS S Assist CDK2/Cyclin A2_FP Kit
Experimental: Human CDK2/Cyclin A2 Inhibitory Activity
as §1, with “CDK2/cyclin A2” for “CDK4/cyclin D3”, “CDK2/Cyclin A2_FP” for “CDK4/Cyclin D3_FP”
An assay buffer was prepared by 10-fold dilution of the 10× assay buffer attached to the kit with distilled water, and each solution was prepared with the assay buffer. The assay buffer contained 20 mM HEPES (pH 7.4), 0.01% Tween 20, and 2 mM dithiothreitol. A test compound solution was prepared by dilution of the test compound with dimethyl sulfoxide (DMSO) to a concentration 100 times higher than the final concentration and then 25-fold dilution with the assay buffer to a concentration four times higher than the final concentration. An ATP/substrate/Metal solution was prepared by five-fold dilution of the 5×ATP/substrate/Metal solution attached to the kit with the assay buffer. An enzyme solution was prepared by dilution of the CDK2/cyclin A2 attached to the kit with the assay buffer to a concentration twice higher than the final concentration (final concentration of CDK2/cyclin A2: 2.5 ng/well). A detection reagent was prepared by five-fold dilution of 5×IMAP-binding buffer A with distilled water and 400-fold dilution of the IMAP-binding reagent with the diluted buffer.
as §2, with “60” for “45”
as §3, with “enzyme solution” for “enzyme solution,”, “against CDK2/cyclin A2.” for “against CDK4/cyclin D3.”
In each table, “+++” corresponds to IC50<10 nM, “++” 10 nM≤IC50<100 nM, and “+” 100 nM≤IC50.

T1 sequence (P11802 whole entry): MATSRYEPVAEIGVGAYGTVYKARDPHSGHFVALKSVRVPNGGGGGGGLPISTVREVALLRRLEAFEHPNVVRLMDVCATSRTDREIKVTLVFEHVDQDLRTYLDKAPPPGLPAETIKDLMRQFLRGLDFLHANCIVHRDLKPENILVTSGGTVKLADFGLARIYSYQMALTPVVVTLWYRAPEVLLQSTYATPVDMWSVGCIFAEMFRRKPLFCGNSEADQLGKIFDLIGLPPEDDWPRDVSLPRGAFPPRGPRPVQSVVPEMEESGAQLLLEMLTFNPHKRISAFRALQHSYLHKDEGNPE
T1 sequence (P30281 whole entry partner): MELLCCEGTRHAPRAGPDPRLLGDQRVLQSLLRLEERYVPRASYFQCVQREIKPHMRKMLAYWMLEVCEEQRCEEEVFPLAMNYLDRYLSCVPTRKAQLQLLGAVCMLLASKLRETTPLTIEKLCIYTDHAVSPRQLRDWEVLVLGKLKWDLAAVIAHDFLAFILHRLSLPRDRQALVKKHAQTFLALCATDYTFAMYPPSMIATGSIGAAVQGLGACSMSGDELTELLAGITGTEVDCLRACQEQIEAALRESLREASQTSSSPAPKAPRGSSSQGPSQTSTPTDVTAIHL

| Structure (SMILES) | IC50 [1] [nM] | IC50 [2] [nM] |
| --- | --- | --- |
| Cc1nc(Nc2ncc3cc([C@@H](C)O)nc(N4CCCCCC4)c3n2)ccc1N1CCCNCC1=O [Compound 306] | < 10 | 10 to 100 |
| Cc1ccc(-c2nc(CO)cc3cnc(Nc4ccc(N5CCNCC5)cn4)nc23)cc1 [Compound 14] | < 10 |  |
| CN1CCN(c2ccc(Nc3ncc4cc(CO)nc(N5CCCCC5=O)c4n3)nc2)CC1 [Compound 3] | ≥ 100 | ≥ 100 |
| Cc1nc(Nc2ncc3cc([C@@H](C)O)nc(N4CCCCC4)c3n2)ccc1N1CCN(C)CC1 [Compound 54] | < 10 | ≥ 100 |
| C[C@@H](O)c1cc2cnc(Nc3ccc4c(n3)CCN(C(=O)CN3CC[C@H](O)C3)C4)nc2c(N2C3CCC2CC3)n1 [Compound 233] | < 10 | ≥ 100 |
| Cc1ccccc1-c1nc(CO)cc2cnc(Nc3ccc(N4CCNCC4)cn3)nc12 [Compound 15] | 10 to 100 |  |
| Cc1nc(Nc2ncc3cc([C@@H](C)O)nc(N4CCCCC4)c3n2)ccc1N1CC2(C1)CN(C1COC1)C2 [Compound 327] | < 10 | ≥ 100 |
| C[C@@H](O)c1cc2cnc(Nc3ccc4c(n3)CCN(C(=O)Cn3ccnn3)C4)nc2c(N2CCCCC2)n1 [Compound 336] | 10 to 100 | ≥ 100 |
| C[C@@H](O)c1cc2cnc(Nc3ccc4c(n3)CCN(C(=O)C3CCN(CCO)CC3)C4)nc2c(N2CCCCC2)n1 [Compound 148] | < 10 | ≥ 100 |
| C[C@@H](O)c1cc2cnc(Nc3ccc4c(n3)CCN(C(=O)[C@H]3C[C@H](O)CN3)C4)nc2c(N2CCCCC2)n1 [Compound 212] | < 10 | ≥ 100 |
| CC(O)c1cc2cnc(Nc3ccc(OC4CCCNC4)cn3)nc2c(N2C3CCC2CC3)n1 (stereo not drawn) [Compound 242] | < 10 | ≥ 100 |
| C[C@@H](O)c1cc2cnc(Nc3ccc4c(n3)CCN(C(=O)[C@H]3CCNC3)C4)nc2c(N2CCCCC2)n1 [Compound 210] | < 10 | ≥ 100 |
| OCc1cc2cnc(Nc3ccc(N4CCNCC4)cn3)nc2c(-c2ccccc2)n1 [Compound 10] | 10 to 100 |  |
| OCc1cc2cnc(Nc3ccc(N4CCNCC4)cn3)nc2c(-c2ccsc2)n1 [Compound 16] | < 10 |  |
| OCc1cc2cnc(Nc3ccc(N4CCNCC4)cn3)nc2c(-c2ccoc2)n1 [Compound 17] | 10 to 100 |  |
| Cc1ccccc1-c1nc(CO)cc2cnc(Nc3ccc(N4CCN(C)CC4)cn3)nc12 [Compound 19] | < 10 |  |
| CN1CCN(c2ccc(Nc3ncc4cc(CO)nc(-c5ccoc5)c4n3)nc2)CC1 [Compound 21] | 10 to 100 |  |
| Cc1ccc(-c2nc(CO)cc3cnc(Nc4ccc(N5CCN(C)CC5)cn4)nc23)cc1 [Compound 18] | < 10 |  |
| FC(F)c1cc2cnc(Nc3ccc(N4CCNCC4)cn3)nc2c(-c2ccccc2)n1 [Compound 12] | < 10 |  |
| CN1CCN(c2ccc(Nc3ncc4cc(CO)nc(-c5ccsc5)c4n3)nc2)CC1 [Compound 20] | < 10 |  |

The remaining lines, values ahead:

| IC50 [1] [nM] | IC50 [2] [nM] | Structure (SMILES) |
| --- | --- | --- |
| < 10 | ≥ 100 | C[C@@H](O)c1cc2cnc(Nc3ccc(O[C@@H]4CCN(CCO)C[C@@H]4F)cn3)nc2c(N2CCCCC2)n1 [Compound 132] |
| < 10 | ≥ 100 | C[C@@H](O)c1cc2cnc(Nc3ccc(N4CCNCC4)nn3)nc2c(N2CCC(C#N)CC2)n1 [Compound 273] |
| 10 to 100 | ≥ 100 | C[C@H](CO)c1cc2cnc(Nc3ccc(CN4CCN(CCO)CC4)cn3)nc2c(N2CCCCC2)n1 [Compound 195] |
| < 10 | ≥ 100 | C[C@@H](O)c1cc2cnc(Nc3ccc(C(=O)N4CCN(C)CC4)cn3)nc2c(N2CCCC2)n1 [Compound 318] |
| < 10 | ≥ 100 | CC(O)c1cc2cnc(Nc3ccc(CN4CCN(C)CC4)cn3)nc2c(N2CCCC2C)n1 (stereo not drawn) [Compound 136] |
| < 10 | ≥ 100 | C[C@@H](O)c1cc2cnc(Nc3ccc(N4CCCNCC4=O)cn3)nc2c(N2CCCCC2)n1 [Compound 127] |
| < 10 | ≥ 100 | C[C@@H](CO)c1cc2cnc(Nc3ccc(N4CCNCC4=O)cn3)nc2c(N2CCCCC2)n1 [Compound 194] |
| 10 to 100 | ≥ 100 | C[C@@H](O)c1cc2cnc(Nc3ccc(CN4CCN(C)CC4)cn3)nc2c(N2CCC2)n1 [Compound 172] |
| < 10 |  | CN1CCN(c2ccc(Nc3ncc4cc(C(F)F)nc(N5CCCCC5)c4n3)nc2)CC1 [Compound 13] |
| < 10 | ≥ 100 | C[C@@H](O)c1cc2cnc(Nc3ccc4c(n3)CCNC4)nc2c(N2CCC(F)(F)CC2)n1 [Compound 80] |
| < 10 | ≥ 100 | C[C@@H](O)c1cc2cnc(Nc3ccc(N4CCNCC4)nn3)nc2c(N2CCCC2C(=O)O)n1 (stereo partly drawn) [Compound 39] |
| < 10 | ≥ 100 | C[C@@H](O)c1cc2cnc(Nc3ccc(CN4CCN(C)CC4)cn3)nc2c(N2CCC[C@@H](F)C2)n1 [Compound 198] |
| 10 to 100 | ≥ 100 | C[C@@H](O)c1cc2cnc(Nc3ccc(CN4CCN(C)CC4)cn3)nc2c(N2CC(F)(F)C2)n1 [Compound 133] |
| < 10 |  | COC(C)c1cc2cnc(Nc3ccc(CN4CCNCC4)cn3)nc2c(N2CCC3CCNC3C2)n1 (stereo not drawn) [Compound 44] |
| < 10 | ≥ 100 | C[C@@H](O)c1cc2cnc(Nc3ccc4c(n3)CCNC4)nc2c(N2CCC(C#N)CC2)n1 [Compound 274] |
| ≥ 100 |  | O=C(O)c1cc2cnc(Nc3ccc(N4CCNCC4)cn3)nc2c(N2CCCCC2)n1 [Compound 23] |
| < 10 |  | COCC1CCN(c2nc(C(C)OC)cc3cnc(Nc4ccc(CN5CCNCC5)cn4)nc23)CC1 (stereo not drawn) [Compound 46] |
| < 10 |  | CN1CCN(c2ccc(Nc3ncc4cc(CO)nc(C5=CCCCC5)c4n3)nc2)CC1 [Compound 22] |
| < 10 |  | COC(C)c1cc2cnc(Nc3ccc(CN4CCNCC4)cn3)nc2c(N2CCCCC2)n1 (stereo not drawn) [Compound 43] |
| < 10 |  | FC(F)c1cc2cnc(Nc3ccc(N4CCNCC4)cn3)nc2c(N2CCCCC2)n1 [Compound 11] |
| < 10 |  | CC(O)c1cc2cnc(Nc3ccc(CN4CCN(C)CC4)cn3)nc2c(N2CCOCC2C)n1 (stereo not drawn) [Compound 291] |
| < 10 |  | COC(C)c1cc2cnc(Nc3ccc(CN4CCNCC4)cn3)nc2c(N2CCC(CO)CC2)n1 (stereo not drawn) [Compound 45] |
| < 10 |  | OCc1cc2cnc(Nc3ccc(N4CCNCC4)cn3)nc2c(N2CCCCC2)n1 [Compound 9] |

Reference: patent US11084814B2, “Pyrido[3, 4-d]pyrimidine derivative and pharmaceutically acceptable salt thereof” (Teijin Pharma Limited, priority 2016, dated 2021)
